Data on twelve molecules can be found in US10597396B2, “Beta-lactamase inhibitors” (Novartis AG, priority 2016, dated 2020).

Holding throughout (format): cell-based
In one experiment the test system is E. coli (AmpC). The experiment in a line: microbe, parasite or virus in culture. As to conditions: for MIC: Escherichia coli. The method, then:
(§1) MICs were determined by the broth microdilution method in accordance with Clinical and Laboratories Institute (CLSI) guidelines. In brief, fresh overnight bacterial cultures were suspended in sterile saline, and adjusted to a 0.5 McFarland turbidity standard. Bacterial suspensions were then diluted in cation adjusted Mueller-Hinton Broth (MHB II; BBL) to yield a final inoculum of approximately 5×10^5 colony-forming units (CFU)/mL. A master plate of antibiotics was prepared at a concentration equivalent to hundred-fold the highest desired final concentration in 100% dimethyl sulfoxide (DMSO). The master antibiotic plate was then diluted by serial twofold dilution with a multichannel pipette. The resulting dilution series of compounds were diluted 1:10 with sterile water or a solution of beta-lactamase inhibitor prepared at a concentration equivalent to eleven-fold the desired final concentration in deionized water leading to a 10% DMSO final concentration. A volume of 10 μL of the drug dilution series was transferred to 96-well assay plates. Assay plates were inoculated with 90 μL of bacterial suspensions and incubated at 35° C. for 20 hrs. The assay plates were read using a microtiter plate reader (Molecular Devices) at 600 nm as well as by visual observation with a reading mirror. The lowest concentration of the compound that prevented visible growth was recorded as the MIC. Performance of the assay was monitored by testing aztreonam against laboratory quality control strains in accordance with guidelines of the CLSI.
(§2) Synergy or potentiation of beta-lactam antibiotics through inhibition of […] was assessed against an isogenic panel of E. coli strains, each expressing a unique beta-lactamase, and against clinical strains.
The gene encoding AmpC was PCR amplified from the genome of strain P. aeruginosa PAO1 (NB52019) (GenBank ID U5R279) using primer pair E252 (gccCTCGAGggcgaggccccggcggatcgc) (SEQ ID NO: 17) and E253 (tgaGAATTCtcagcgcttcagcggcacct) (SEQ ID NO: 18).
The PCR products were then digested with XhoI and EcoRI and ligated into similarly digested plasmid pAH63-pstS(BlaP). Plasmid pAH63-pstS(BlaP) is a derivative of plasmid pAH63 (J Bacteriol: 183(21): 6384-6393) made by cloning the TEM-1 (bla) promoter and signal peptide encoding region from plasmid pBAD (J Bacteriol. 1995 July 177(14):4121-30) into plasmid pAH63. This fragment was PCR amplified from pBAD using primer pair E192 (ttcaCTGCAGtgaacgttgcgaagcaacggC) (SEQ ID NO:19) and E194 (TCGAggatcctcgagagcaaaaacaggaaggcaaaatgccg) (SEQ ID NO:20), digested with PstI and BamHI and inserted into similarly digested plasmid pAH63. Therefore, expression of beta-lactamases from pAH63-pstS(BlaP) based constructs is constitutive and the signal sequence is provided to direct these proteins to the periplasm. […]

For the next experiment, the system named is E. coli (OXA-18). In words: microbe, parasite or virus in culture. As to conditions: for MIC: Escherichia coli. The method, then:
as §1, with “MIC.” for “MIC. Performance of the assay was monitored by testing aztreonam against laboratory quality control strains in accordance with guidelines of the CLSI.”
as §2
(§3) Construction of E. coli isogenic strains, NB27273-CDY0105 (OXA-18) and NB27273-CDY0048 (TEM-10). […] The gene encoding OXA-18 was then digested with XhoI and EcoRI and inserted into this vector, from which the gene for GIM-1 had been removed with XhoI and EcoRI.
These final vectors for expression of OXA-18 and TEM-10 were transformed into BW25113 pspB to generate strains NB27273-CDY0105 (expressing OXA-18) and NB27273-CDY0048 (expressing TEM-10).

For a further experiment, the system named is E. coli (TEM-10). The experiment in a line: microbe, parasite or virus in culture. The following applies: for MIC: Escherichia coli. The method, then:
as §1, with “MIC.” for “MIC. Performance of the assay was monitored by testing aztreonam against laboratory quality control strains in accordance with guidelines of the CLSI.”
as §2, §3
From this template DNA, three fragments were generated by PCR using the following primer pairs;
This fragment was then digested with XbaI and EcoRI and inserted into pBAD-kan which was also cut with the same enzymes. […]

The next experiment has as its system E. coli (CTX-M-15). In words: microbe, parasite or virus in culture. As to conditions: for MIC: Escherichia coli. The method, then: as §1, with “MIC.” for “MIC. Performance of the assay was monitored by testing aztreonam against laboratory quality control strains in accordance with guidelines of the CLSI.”
as §2
(§4) Strain NB27273 (BW25113 pspB::Km^r) was obtained from the Keio transposon insertion collection. The strain has the pspB gene replaced by a kanamycin resistance marker (BW25113 pspB::Km^r). This strain was cured of the transposon in pspB via FLP recombinase using published methodology. The resulting strain, BW25113 pspB, was used as a host for multicopy vectors expressing key beta-lactamases. Multicopy plasmids directing constitutive expression of beta-lactamases were established as follows: Synthetic, codon optimized genes encoding E. coli KPC-2, SHV-12 and CTX-M-15 beta-lactamases were made by DNA2.0 (Palo Alto, Calif.). Each of the synthetic fragments were designed to contain NotI and NcoI restriction sites at their termini, allowing ligation into a NotI/NcoI digested pET28a(+) derivative for protein expression. […] The codon optimized nucleotide sequences and relevant primer recognition information is shown below:
(§5) The PCR products were then digested with XhoI and EcoRI and ligated into similarly digested plasmid pAH63-pstS(BlaP). […] Therefore, expression of beta-lactamases from pAH63-pstS(BlaP) based constructs is constitutive and the signal sequence is provided to direct these proteins to the periplasm. […] These fragments were then digested with XbaI and EcoRI, and each was inserted into pBAD18-kan that had been digested with the same enzymes to generate multicopy vectors expressing KPC-2, SHV-12 and CTX-M-15, respectively. These vectors were transformed into BW25113 pspB to generate strains NB27273-CDY0033 (expressing KPC-2), NB27273-CDY0030 (expressing SHV-12), NB27273-CDY0034 (expressing CTX-M-15) and NB27273-CDY0036 (expressing AmpC). The pBAD18-kan vector also contains the TEM promoter region and signal sequence, (but lacks any intact beta-lactamase genes) and was transformed into BW25113 pspB using standard protocols to generate the control strain NB27273-CDY0026.

For a further experiment, the system named is E. coli (KPC-2). The experiment in a line: microbe, parasite or virus in culture. The following applies: for MIC: Escherichia coli. The method, then:
as §1, with “MIC.” for “MIC. Performance of the assay was monitored by testing aztreonam against laboratory quality control strains in accordance with guidelines of the CLSI.”
as §2, §4, §5

In a further experiment the test system is E. coli (SHV-12). The experiment in a line: microbe, parasite or virus in culture. As to conditions: for MIC: Escherichia coli. The method, then:
as §1, with “MIC.” for “MIC. Performance of the assay was monitored by testing aztreonam against laboratory quality control strains in accordance with guidelines of the CLSI.”
as §2, §4, §5

The test system of experiment [1] is Enterobacter cloacae NB25055 (CMY-2). The experiment in a line: Potentiation of beta-lactam MIC in beta-lactam resistant clinical isolate. The following applies: read-out: Activity (MIC) of piperacillin alone. The method, then:
as §1, §2

The next experiment deals with S. aureus NB01437 (BLA+). Described as above. The following applies: Staphylococcus aureus, read-out: Activity (MIC) of piperacillin alone. The method, then: as §1, §2
Experiment [2] deals with K. pneumoniae NB29082 (KPC-2). Described as above. As to conditions: Klebsiella pneumoniae, read-out: Activity (MIC) of piperacillin alone. The method, then: as §1, §2
Experiment [3] has as its system E. coli ATCC 25922, K. pneumoniae ATCC 43816, P. aeruginosa ATCC 27853. The experiment in a line: Direct antibacterial activity of BLIs, summary of Table A in words. The following applies: BLI alone; statement on Table A. The method, then: as §1, with “A volume of 10 μL of the drug dilution series was transferred to 96-well assay plates. Assay plates were inoculated with 90 μL of bacterial suspensions and incubated at 35° C. for 20 hrs.” left out

Experiment [4] deals with K. pneumoniae NB29323 (CTX-M-15, OXA-48, VEB-1). In words: Potentiation of beta-lactam MIC in beta-lactam resistant clinical isolate. The following applies: Klebsiella pneumoniae, read-out: Activity (MIC) of aztreonam alone. The method, then:
as §1, §2

Where [5] appears, read: no BLI, read-out: Activity (MIC) of Beta-Lactam 5 alone.
Where [6] appears, read: read-out: MIC of ceftazidime alone, no BLI.

Where two headings read alike, the source gives them in different places.

Consider Meropenem, for which the “MIC of meropenem alone” value in the experiment on E. coli (AmpC) (no BLI) was ≤0.06 µg/mL; in the experiment with E. coli (OXA-18) (no BLI), ≤0.06 µg/mL; in the experiment on E. coli (TEM-10) (no BLI), ≤0.06 µg/mL; in the experiment with E. coli (CTX-M-15) (no BLI), ≤0.06 µg/mL; with E. coli (KPC-2) (E. coli (KPC-2), no BLI), 1 µg/mL; in the experiment with E. coli (SHV-12) (no BLI) it was ≤0.06 µg/mL.

For `C[C@]1(Cn2ccnn2)[C@H](C(=O)O)N2C(=O)C[C@H]2S1(=O)=O` [Tazobactam], in the experiment on E. coli (OXA-18) (BLI at 4 μg/mL), the “MIC of piperacillin in combination with the BLI” value (from here on “MIC of piperacillin”) worked out at 8 µg/mL.

As to `O=C1[C@@H]2[C@@H](C[C@@H]3CN2C(=O)N3OS(=O)(=O)[O-])CN1C1CC1.[Na+]` [Example 3, Sodium (4R,5aS,8aS)-7-cyclopropyl-2,8-dioxohexahydro-2H-1,4-methanopyrrolo[3,4-d][1,3]diazepin-3(4H)-yl sulfate], in the experiment on E. coli (OXA-18) (BLI at 2 μg/mL), the “MIC of piperacillin” value was found to be 4 µg/mL.

As to `CCN1CCN(C(=O)N[C@@H](C(=O)N[C@@H]2C(=O)N3C2SC(C)(C)[C@@H]3C(=O)O)c2ccccc2)C(=O)C1=O` (some centres unmarked) [Piperacillin], the MIC in experiment [1] is > 64 µg/mL; in the experiment on S. aureus NB01437 (BLA+), 64 µg/mL; in experiment [2] it was > 64 µg/mL.

As to `NC(=O)[C@@H]1CC[C@@H]2CN1C(=O)N2OS(=O)(=O)O` [Avibactam], the “Direct antibacterial activity of the BLI, in words” value in [3] is “exhibit direct antibacterial activity”. Besides, the “MIC of piperacillin” value in the experiment on E. coli (OXA-18) (BLI at 2 μg/mL) was 2 µg/mL.

Consider `O=C1NCC[C@@H]2C[C@@H]3CN(C(=O)N3OS(=O)(=O)[O-])[C@H]12.[Na+]` [Example 7, Sodium (4R,5aR,9aS)-2,9-dioxooctahydro-1,4-methanopyrido[3,4-d][1,3]diazepin-3(2H)-yl hydrogen sulfate], for which the “MIC of piperacillin” value with E. coli (AmpC) (BLI at 2 μg/mL) and with E. coli (OXA-18) (BLI at 2 μg/mL) was 8 µg/mL each time.

Regarding `C[C@H]1[C@H](NC(=O)/C(=N\OC(C)(C)C(=O)O)c2csc(N)n2)C(=O)N1S(=O)(=O)O` [Aztreonam], the MIC in [4] was > 64 µg/mL.

With `Nc1nc(/C(=N/OC2(C(=O)O)CC2)C(=O)N[C@@H]2C(=O)N(S(=O)(=O)O)[C@@H]2CN2CCOC2=O)cs1` [Beta-Lactam 5], the MIC worked out at 0.25 µg/mL in the experiment on E. coli (AmpC) (setting [5]); 0.5 µg/mL in the experiment with E. coli (OXA-18) (setting [5]); 2 µg/mL in the experiment with E. coli (TEM-10) (setting [5]); 0.125 µg/mL in the experiment with E. coli (CTX-M-15) (setting [5]); 0.25 µg/mL in the experiment with E. coli (KPC-2) (E. coli (KPC-2), no BLI, read-out: Activity (MIC) of Beta-Lactam 5 alone); 0.5 µg/mL in the experiment with E. coli (SHV-12) (setting [5]).

As for `CN1C[C@@H]2C[C@@H]3CN(C(=O)N3OS(=O)(=O)[O-])[C@@H]2C1=O.[Na+]` [Example 2, Sodium (4R,5aS,8aS)-7-methyl-2,8-dioxohexahydro-2H-1,4-methanopyrrolo[3,4-d][1,3]diazepin-3(4H)-yl sulfate], the “MIC of piperacillin” value in the experiment on E. coli (OXA-18) (BLI at 2 μg/mL) was 4 µg/mL.

Turning to `O=C1NC[C@@H]2C[C@@H]3CN(C(=O)N3OS(=O)(=O)[O-])[C@H]12.[Na+]` [Example 1, Sodium (4R,5aS,8aS)-2,8-dioxohexahydro-2H-1,4-methanopyrrolo[3,4-d][1,3]diazepin-3(4H)-yl sulfate], the “Direct antibacterial activity of the BLI, in words” value in experiment [3] is recorded as “does not exhibit much direct antibiotic activity”. Moreover, the “MIC of piperacillin” value with E. coli (OXA-18) (BLI at 2 μg/mL) came to 2 µg/mL.

`CC(C)(O/N=C(\C(=O)N[C@@H]1C(=O)N2C(C(=O)O)=C(C[n+]3ccccc3)CS[C@H]12)c1csc(N)n1)C(=O)O` [Ceftazidime]: the MIC with E. coli (AmpC) (setting [6]) is 4 µg/mL; in the experiment on E. coli (OXA-18) (setting [6]), > 64 µg/mL; in the experiment on E. coli (TEM-10) (setting [6]), > 64 µg/mL; in the experiment with E. coli (CTX-M-15) (setting [6]), 16 µg/mL; with E. coli (KPC-2) (read-out: MIC of ceftazidime alone), 4 µg/mL; with E. coli (SHV-12) (setting [6]), > 64 µg/mL.

For the molecule `O=C(NC1CCNCC1)[C@@H]1CC[C@@H]2CN1C(=O)N2OS(=O)(=O)O` [Relebactam], the “MIC of piperacillin” value in the experiment on E. coli (OXA-18) (BLI at 2 μg/mL) was >32 µg/mL.
